Columns and labels:
[1] = target: T1, hamster α-1B adrenergic receptor (Mesocricetus auratus, UniProt P18841); format: cell-based
T1 sequence (P18841 1-515): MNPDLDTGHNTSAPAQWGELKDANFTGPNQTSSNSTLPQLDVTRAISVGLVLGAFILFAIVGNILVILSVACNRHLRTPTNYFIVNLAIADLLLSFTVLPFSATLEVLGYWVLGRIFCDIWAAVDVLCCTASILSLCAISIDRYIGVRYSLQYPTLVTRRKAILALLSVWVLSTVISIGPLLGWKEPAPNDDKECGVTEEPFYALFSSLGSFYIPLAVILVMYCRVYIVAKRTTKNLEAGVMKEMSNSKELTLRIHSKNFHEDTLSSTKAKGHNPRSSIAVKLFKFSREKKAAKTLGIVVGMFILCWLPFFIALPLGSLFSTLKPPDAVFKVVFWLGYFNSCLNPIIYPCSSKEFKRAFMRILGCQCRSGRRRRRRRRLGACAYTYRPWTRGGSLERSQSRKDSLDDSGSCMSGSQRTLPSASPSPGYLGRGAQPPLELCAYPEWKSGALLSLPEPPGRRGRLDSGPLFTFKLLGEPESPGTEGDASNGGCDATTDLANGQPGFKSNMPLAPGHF
Description: (§1) The bovine α-1A and hamster α-1B receptor supernatants were added, in varying amounts, to naive HEK293 cells, which were then incubated for 48 hours. The transduced cell populations were replated at a lower density and grown in media containing 0.25 ug/ml puromycin. […] Receptor density was measured in a prazosin radioligand binding assay.
(§2) Intracellular Ca^+2 responses were measured as follows in HEK293 cells stably expressing either the bovine α-1A or hamster α-1B adrenergic receptor. Between 40,000 to 50,000 cells were plated per well in 96-well poly-D-lysine coated plates in 0.2 ml DMEM containing 10% heat-inactivated fetal calf serum, 1% antibiotic-antimycotic and 0.25 μg/ml puromycin one day prior to use. Cells were washed twice with HBSS supplemented with 10 mM HEPES, 2.0 mM CaCl2 and 2.5 mM probenicid, and subsequently incubated at 37° C. for 60 minutes with 4 μM Fluo-4 (Molecular Probes; Eugene, Oreg.). The extracellular dye was washed from the plates twice prior to placing the plates in the fluorometric imaging plate reader (FLIPR; Molecular Devices; Sunnyvale, Calif.). Ligands were diluted in HBSS and aliquoted into a 96-well microplate. Drugs were tested over the concentration range of 0.64 nM to 10,000 nM. Data for Ca^+2 responses were obtained in arbitrary fluorescence units.

[2] = target: T2, bovine α-1A adrenergic receptor (Bos taurus, UniProt P18130); assay: Intracellular Ca+2 response in HEK293 cells expressing bovine α-1A receptor; format: cell-based
T2 sequence (P18130 1-466): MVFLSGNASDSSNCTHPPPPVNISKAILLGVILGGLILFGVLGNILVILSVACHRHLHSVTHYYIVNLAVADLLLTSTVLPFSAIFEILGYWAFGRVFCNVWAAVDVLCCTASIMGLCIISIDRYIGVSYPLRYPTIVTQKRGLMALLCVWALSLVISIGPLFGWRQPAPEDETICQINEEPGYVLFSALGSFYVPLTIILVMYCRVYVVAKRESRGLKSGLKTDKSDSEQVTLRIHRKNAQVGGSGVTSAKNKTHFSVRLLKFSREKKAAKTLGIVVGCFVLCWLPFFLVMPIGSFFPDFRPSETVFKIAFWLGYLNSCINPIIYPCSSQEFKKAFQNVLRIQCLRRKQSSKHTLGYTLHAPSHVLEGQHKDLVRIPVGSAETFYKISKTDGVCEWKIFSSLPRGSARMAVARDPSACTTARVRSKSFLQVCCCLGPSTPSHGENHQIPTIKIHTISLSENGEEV
Description: as §1, §2

[3] = target: T3, human α-2A receptor (Homo sapiens, UniProt P08913); conditions: percent efficacy relative to brimonidine
T3 sequence (P08913 1-465): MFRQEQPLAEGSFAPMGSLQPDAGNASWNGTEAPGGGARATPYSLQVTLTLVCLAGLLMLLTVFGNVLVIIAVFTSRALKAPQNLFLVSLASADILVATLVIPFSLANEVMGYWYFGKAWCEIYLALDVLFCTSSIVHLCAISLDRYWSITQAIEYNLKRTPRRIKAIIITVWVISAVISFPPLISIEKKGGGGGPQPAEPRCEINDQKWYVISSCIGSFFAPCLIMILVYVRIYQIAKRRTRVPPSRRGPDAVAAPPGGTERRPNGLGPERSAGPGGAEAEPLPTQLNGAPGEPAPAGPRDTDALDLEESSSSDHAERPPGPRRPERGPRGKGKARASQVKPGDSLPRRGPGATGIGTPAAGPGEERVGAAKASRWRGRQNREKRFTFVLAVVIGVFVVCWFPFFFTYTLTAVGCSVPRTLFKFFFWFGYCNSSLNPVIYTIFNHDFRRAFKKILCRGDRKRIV
Description: (§3) The human α-2A and α-2C receptor supernatants were added, in varying amounts, to naive PC12 cells, which were then incubated for 48 hours. The transduced cell populations were replated at a lower density and grown in media containing 100 ug/ml puromycin.
(§4) Intracellular cAMP measurement was performed as follows. PC12 cells stably expressing the human α-2A or human α-2C adrenergic receptors were plated in 96-well poly-D-lysine coated plates at a density of 30,000 cells per well in 100 μl DMEM supplemented with 10% horse serum, 5% heat inactivated fetal bovine serum, 1% antibiotic-antimycotic and 100 μg/ml puromycin. Cells were grown overnight at 37° C. and 5% CO2. Cells were dosed by adding an equal volume of media containing IBMX (to a final concentration of 1 mM), forskolin (to a final concentration of 10 μM) and the appropriate drug dilution (to a final concentration of between 10^−5 M and 10^−12 M). After a 10 minute incubation, the media was aspirated and the cells lysed with 200 μl lysis buffer (Amersham Biosciences; Piscataway, N.J.). Plates were stored at −20° C. for up to 24 hours prior to assay. Intracellular cAMP was determined using the Biotrak cAMP enzyme immunoassay system (Amersham Biosciences) according to the manufacturer's instructions. Plates were read on a plate reader at 450 nm.

[4] = target: T4, human α-2C receptor (Homo sapiens, UniProt P18825); assay: Inhibition of forskolin-induced cAMP accumulation in PC12 cells expressing human α-2C receptor; format: cell-based; conditions: percent efficacy relative to brimonidine
T4 construct: expressed in transfected cells; host or cells: PC12 cells (retroviral vector pCL BABE Puro)
T4 sequence (P18825 1-462): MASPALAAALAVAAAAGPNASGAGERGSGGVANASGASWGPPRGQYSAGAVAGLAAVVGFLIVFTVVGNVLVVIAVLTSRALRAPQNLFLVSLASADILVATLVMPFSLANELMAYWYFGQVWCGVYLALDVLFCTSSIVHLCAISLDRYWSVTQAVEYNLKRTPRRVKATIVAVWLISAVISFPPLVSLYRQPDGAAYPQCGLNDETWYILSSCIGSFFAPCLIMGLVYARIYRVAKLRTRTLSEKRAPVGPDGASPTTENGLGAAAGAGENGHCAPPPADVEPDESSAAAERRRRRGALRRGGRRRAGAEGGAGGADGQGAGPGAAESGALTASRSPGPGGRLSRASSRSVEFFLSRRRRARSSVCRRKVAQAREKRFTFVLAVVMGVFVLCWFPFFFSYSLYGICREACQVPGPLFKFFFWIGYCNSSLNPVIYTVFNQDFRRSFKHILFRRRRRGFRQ
Description: as §3, §4

[5] = percent efficacy relative to phenylephrine

Cc1cccc([C@H](C)c2cnc[nH]2)c1C [Dexmedetomidine]
hamster α1B % E [1, 5]: 62% | agonist activity at the α-1B receptor ([1]; result in words): partial agonists | bovine α1A % E [2, 5]: 59% | agonist activity at the α-1A receptor ([2]; result in words): partial agonists | human α2A % E [3]: 93% | human α2C % E [4]: 90%

Source: patent US20130217694A1, “METHOD OF REDUCING THE SEVERITY OF INFLAMMATORY DERMATOLOGICAL CONDITIONS” (Allergan, Inc.., priority 2003, published 2013)
